Measured values reported in paper PMC8802628, “Selective activation of PFKL suppresses the phagocytic oxidative burst” (Cell, 2021).

Experiments:
PMNs = assay: NADPH/NADP+ detection assay in neutrophils; assay type: cell-based, human
Procedure: The ratio of NADPH/NADP^+ (or NADH/NAD^+) was calculated after measuring the individual concentrations of NADPH and NADP^+ (or NADH and NAD^+) with NADP/NADPH-Glo (or NAD/NADH-Glo) assays (Promega). […] Cells were lysed in plates by addition of 1% dodecyltrimethylammonium bromide (DTAB). To measure NADPH, half of the samples was heated at 60 °C for 30 min. The other half was treated with HCl before heating to 60°C, to measure NADP^+. All samples were neutralized before adding luciferase detection reagent, then incubated for 1 h with gentle shaking. Luminescence was recorded on a plate reader (Envision).

PFKL = target: T1, PFKL (Homo sapiens, UniProt P17858); assay: Thermal shift of PFKL by immunoblotting in THP-1 lysates; assay type: binding
T1 construct: endogenous in cells; host or cells: THP-1 cell lysate
T1 sequence (P17858 2-780 limits assumed): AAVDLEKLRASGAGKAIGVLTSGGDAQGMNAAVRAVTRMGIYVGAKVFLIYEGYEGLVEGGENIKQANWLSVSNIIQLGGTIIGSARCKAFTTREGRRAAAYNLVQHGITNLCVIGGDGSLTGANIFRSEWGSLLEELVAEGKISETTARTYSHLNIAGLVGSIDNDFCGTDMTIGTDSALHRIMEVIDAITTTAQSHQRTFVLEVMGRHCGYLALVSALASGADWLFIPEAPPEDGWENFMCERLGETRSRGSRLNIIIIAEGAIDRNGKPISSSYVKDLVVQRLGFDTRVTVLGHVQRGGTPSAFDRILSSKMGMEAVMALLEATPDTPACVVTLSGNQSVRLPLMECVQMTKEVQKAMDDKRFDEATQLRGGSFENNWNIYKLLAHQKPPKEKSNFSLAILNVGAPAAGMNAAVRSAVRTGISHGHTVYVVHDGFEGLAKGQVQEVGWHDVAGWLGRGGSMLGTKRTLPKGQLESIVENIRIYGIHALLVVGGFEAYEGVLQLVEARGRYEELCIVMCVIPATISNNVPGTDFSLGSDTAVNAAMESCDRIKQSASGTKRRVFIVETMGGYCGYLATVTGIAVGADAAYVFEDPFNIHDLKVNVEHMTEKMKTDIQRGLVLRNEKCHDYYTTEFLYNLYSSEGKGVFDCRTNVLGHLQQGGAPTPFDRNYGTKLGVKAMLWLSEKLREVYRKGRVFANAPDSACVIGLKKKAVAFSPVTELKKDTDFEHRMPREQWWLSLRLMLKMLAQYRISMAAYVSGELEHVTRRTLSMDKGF
Procedure: Figure 2. Chemoproteomic analysis of the global interactors and specific targets of NA-11 (A) Dual chemoproteomic workflow. (B) TPP analysis of neutrophil lysates. Graph plots the ΔTm induced by NA-11 between 37°C and 65°C versus log2(fold change in the area under the melting curve from 44°C to 58°C). Each circle represents a different protein. Top hits with an upward shift in Tm are boxed. p values were determined by paired Student’s t test. (C) Percentage of PMNs undergoing PMA-induced NETosis. Bars show the mean ± SD of cells from three donors. (D) Structures of PALP1 and PALP6. […] Dot size indicates the p values from the affinity pull-downs (paired Student’s t test). […] (F) Western blots of THP-1 lysates heated for 3 min. Graph indicates PFKL band intensities quantified using ImageJ. Data are the mean ± SD of three independent experiments. See also Figures S2 and S3.
We validated the interaction of NA-11 with PFKL in THP-1 cells by immunoblotting PFKL in TPP samples (Figure 2F). […] PDE6δ sustains Ras signaling, which activates the Raf-MEK (mitogen-activated ERK kinase)-ERK (extracellular signal-regulated kinase) pathway ([Chandra et al., 2011]). […] Thus, NA-11 must not inhibit NETosis by compromising the MEK-ERK signaling cascade downstream of PDE6δ.

IL-1β = assay: GSDMD-dependent IL-1β release from monocytes; assay type: cell-based, human; settings: nigericin or poly(dA-dT)
Procedure: Primary human monocytes were primed with 1 μg/mL ultrapure LPS and 1μg/mL Pam3CSK4 for 3 h. THP-1 cells were primed with 1 μg/mL Pam3CSK4 for 4 h. Primed cells (1 × 10^5) were treated for 1 h with DMSO vehicle, 5 μM LDC7559 (unless indicated otherwise), 10 μM MCC950, or 50 μM VX765, and then for 1 h with 10 μg/mL nigericin, or 25 μg/mL LPS (electroporated using the NEON electroporation system; ThermoFisher Scientific), or they were transfected over 3 h with 1 μg/mL poly(dA-dT) using lipofectamine 2000 (0.5 μL/well).
(§1) LDH released into the culture medium was measured 1-3 h post-activation using a CellTox Green Cytotoxicity assay (Promega). IL-1β secretion was measured using a MSD Cytokine Assay, 96-well multi-array Tissue Culture Kit (Meso Scale Discovery). For immunoblotting, monocytes (2 × 10^6) were treated with 10-50 μM LCD7559 or 50 μM VX765 and electroporated with 25 μg/mL LPS using the NEON electroporation system. Cells were lysed after 1 h using lysis buffer (50 mM Tris pH 7.4, 150 mM NaCl, 10% glycerol, 1% NP-40, 1 mM MgCl and 1X Roche cOmplete protease inhibitor cocktail) and protein concentration was determined via BCA protein assay (Peirce). Antibodies for immunoblotting were GSDMD (L60, Cell Signaling Technologies), cleaved GSDMD-Asp275 (E7H9G, Cell Signaling Technologies) and GAPDH (14C10, Cell Signaling Technologies).

GSDMD = target: T2, GSDMD (Homo sapiens, UniProt P57764); assay: LPS-induced cleavage of GSDMD in monocytes (western blot); assay type: cell-based; design: endogenous in cells; host or cells: primary human monocytes electroporated with LPS; settings: monocytes electroporated with LPS
T2 sequence (P57764 1-484): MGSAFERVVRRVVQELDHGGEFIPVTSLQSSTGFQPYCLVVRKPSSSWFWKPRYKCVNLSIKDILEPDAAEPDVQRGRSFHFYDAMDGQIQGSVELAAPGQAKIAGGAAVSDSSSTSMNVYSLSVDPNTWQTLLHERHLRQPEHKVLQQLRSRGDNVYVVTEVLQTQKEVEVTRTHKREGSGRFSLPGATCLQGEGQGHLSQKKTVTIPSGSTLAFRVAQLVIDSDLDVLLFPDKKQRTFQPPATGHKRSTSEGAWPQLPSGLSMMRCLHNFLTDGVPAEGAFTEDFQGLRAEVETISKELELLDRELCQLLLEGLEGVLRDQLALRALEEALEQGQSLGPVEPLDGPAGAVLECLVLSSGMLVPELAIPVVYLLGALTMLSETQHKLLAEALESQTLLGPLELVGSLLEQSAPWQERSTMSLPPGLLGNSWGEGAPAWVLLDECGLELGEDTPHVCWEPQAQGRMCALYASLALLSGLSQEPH
Procedure: as §1

| SMILES | NADPH replenishment / turnover after apocynin (PMNs; PMA 30 min, then apocynin) | NADPH/NADP+ ratio in resting cells (PMNs; resting neutrophils) | melting temperature of PFKL with compound (PFKL; 55°C ± 1°C without shift) | thermal shift in PFKL (PFKL; immunoblot) | GSDMD-dependent release of IL-1β (IL-1β) | LPS-induced cleavage of GSDMD (GSDMD) |
| --- | --- | --- | --- | --- | --- | --- |
| CC(=O)Nc1ccc2c(c1)OCc1cc(-c3ccccc3C#CCCCO)nn1C2 [NA-11] | slower to replenish NADPH | did not change the NADPH/NADP^+ ratio | 59 °C | 4 °C |  |  |
| COc1ccccc1-c1cc2n(n1)Cc1ccc(NC(C)=O)cc1OC2 [LDC7559, reference compound] |  |  |  |  | occurred normally | did not prevent LPS-induced cleavage of GSDMD |
